This note sets out measurements from PubChem BioAssay AID2305 (GlaxoSmithKline (GSK), 2010).

The subject of the test is P. falciparum 3D7 growth, pLDH absorbance. Put plainly: P. falciparum 3D7 growth inhibition, dose response, strain 3D7 (AID 2305).

Molecules are shown by their SMILES. “And” between values parts separate entries of the source, which are not always exact repeats. Identical values can stand only once.

One may read the IC50 as the concentration needed to halve the response being measured. A lower IC50 goes with higher potency. Molecule `CC1CCCN(Cc2c(O)ccc3c(=O)c(-c4nc5ccccc5s4)c(N)oc23)C1` (centres undefined) registered a half-inhibitory concentration (IC50) of 0.14 µM.
Take `COc1ccc(CNCc2ccccc2)cc1-c1ccc(S(=O)(=O)NCCN2CCCC2)s1`: the half-maximal inhibitory concentration (IC50) is 0.67 µM.
The result for `C[C@H](Cc1ccc(OCCCCCCOc2ccccc2)cc1)NC[C@@H](O)c1cc(Br)no1` reads 0.88 µM; that for `CNC(=O)NC1CCN(Cc2c(-c3cccs3)nc3ccccc3c2C(=O)N[C@@H](C)C2CCCCC2)CC1`, 0.22 µM; that for `CCCCCCCCn1ccc(=N)cc1`, 0.84 µM.
The result for `COc1ccc(CNC(=O)c2cnc3c(O)cccc3c2Nc2cccc(NC(=O)c3ccc(F)cc3)c2)cc1` reads 1 µM.
Regarding `C[C@@H]1CN(c2cccc3c2nc(-c2cncc(C#N)c2)n3CCNCc2ccccc2)C[C@H](C)O1`, the IC50 was 1.22 µM.
In the case of `CCS(=O)(=O)c1ccc(OC)c(Nc2nccc(-c3c(-c4cccc(NC(=O)c5c(F)cccc5F)c4)nn4ncccc34)n2)c1`, the IC50 was 1.03 µM.
The molecule `CCNc1cc(C(=O)N[C@@H](Cc2ccccc2)[C@H](O)CNCCC(C)(C)C)c(F)c(N2CCCCS2(=O)=O)c1` gave a half-maximal inhibitory concentration (IC50) of 0.8 µM.
The figure for `CCCCCCN1CCN(Cc2cccc(NC(=O)c3cc4ccccc4o3)c2)CC1` is 0.91 µM.
The result for `CS(=O)(=O)c1ccc(CCNCc2ccc(-c3ccc(CN(C(=O)c4ccc(Cl)nc4)C4CCN(Cc5ccccc5)CC4)cc3)nc2)cc1` reads 0.8 µM.
The figure for `Cc1ccccc1C1CCN(C2CCC(NC(=O)/C=C/c3ccc(OC(F)(F)F)cc3)CC2)CC1` (centres undefined) is 0.86 µM.
Take `O=C(Nc1ccc2c(c1)OCO2)c1cc(-c2cccnc2)cnc1NCc1ccc2c(c1)OCO2`: the half-inhibitory concentration (IC50) was determined as 1.19 µM.
The result for `Cc1cccc2[nH]c(-c3ccc(-c4cccc(NC(=O)c5cnccc5C(F)(F)F)c4)cc3)nc12` reads 1 µM; that for `NC1CCN(CCNCc2cccc(-c3ccc(-c4nc5ccc(F)cc5[nH]4)cc3)c2)C1` (centres undefined), 0.73 µM; that for `COc1cccc(CNC(=O)c2ccnc(-c3ccc(CNCCOc4ccccc4)cc3)c2)c1`, 1.2 µM.
In the case of `CC(C)C(=O)n1ncc2c3c(N)nc(N)nc3ccc21`, the half-inhibitory concentration (IC50) is 1.03 µM.
The result for `O=c1cc(NCCCNC2CCOc3c(Cl)cc(Cl)cc32)[nH]c2ccccc12` (centres undefined) reads 0.72 µM.
In turn, `OCC1CCN(Cc2ccc(-c3ccc(-c4nc5ccc(C(F)(F)F)cc5[nH]4)cc3)cc2)CC1` yielded a 50% inhibitory concentration (IC50) of 0.7 µM.
The result for `CC(=O)c1ccc2c(c1)[C@H](NC(=O)c1cccc(Cl)c1Cl)[C@@H](CO)C(C)(C)O2` reads 0.69 µM; that for `CCCN(CCC)C(=O)c1cc(C(=O)N[C@@H](Cc2ccccc2)[C@H](O)CNC(C)(C)c2cccc(OC)c2)cc(N2CCCCS2(=O)=O)c1`, 0.03 µM; that for `CN(C)CC(O)COc1ccc(Nc2ncc([N+](=O)[O-])c(Nc3ccccc3O)n2)cc1` (centres undefined), 0.76 µM.
On to `S=C(NCCCCCN1CCC(c2c[nH]c3ccccc23)CC1)Nc1ccc(Cl)c(Cl)c1`, for which the IC50 was 0.71 µM.
The result for `O=C(CC1CCCC1)N(Cc1ccc(-c2ccc(CNC3Cc4ccccc4C3)cc2)cc1)CC1CCCCN1` (centres undefined) reads 1.06 µM.
The result for `COC(=O)c1ccc(CC(C)NCC(O)c2cccc(C(F)(F)F)c2)cc1` (centres undefined) reads 0.97 µM and 1.15 µM; that for `CC(C)Oc1ccc2c(c1)OC(c1ccccc1)(C(F)(F)F)NC2=O` (centres undefined), 0.14 µM; that for `COc1cc(Cc2cnc(NCCN3CCNCC3)nc2N)ccc1OCc1ccc(C(F)(F)F)cc1`, 0.92 µM.
The figure for `Cc1cc(OCC2CCN(c3ncc(C(=O)NC4CC4)cc3Cl)CC2)ccc1F` is 0.79 µM.
As for `Cc1cccc2[nH]c(-c3ccc(-c4cccc(CNCCCN5CCCC5=O)c4)s3)nc12`, the IC50 was 0.59 µM.
For `COc1ccccc1NC(=O)Nc1ccc(-c2cccc(-c3nc4ccccc4[nH]3)c2)cc1`, the half-maximal inhibitory concentration (IC50) is 0.64 µM.
The result for `COc1ccc(Nc2ncc(Cl)c(Nc3cccnc3C(N)=O)n2)cc1N1CCN(C)CC1` reads 0.23 µM.
The molecule `COc1cc(NC(=O)c2ccc3c(=O)n(Cc4ccccc4)c(=S)[nH]c3c2)cc(OC)c1OC` came in with an IC50 of 0.74 µM.
The figure for `O=C(Cc1cnc[nH]1)Nc1ccc(-c2cccc(-c3nc4ccc(F)cc4[nH]3)c2)cc1` is 0.8 µM; for `CCOC(=O)c1c(C)n(-c2ccc(Cl)cc2)c2ccc(OC(=O)C=Cc3ccccc3)cc12` it is 0.7 µM.
The result for `Cc1cccc2[nH]c(-c3cccc(-c4ccc(NC(=O)c5cccnc5)cc4)c3)nc12` reads 0.59 µM; that for `CC(C)CNCc1cccc(-c2ccc(CNc3ccc4ncccc4c3)cc2)c1`, 1.06 µM.
Turning to `CC(C)CNC(=O)c1ccnc(-c2ccc(CNCCCc3ccccc3)cc2)c1`, the IC50 was 0.73 µM.
The result for `CN1C(=C2SC(=Nc3ccc4ncccc4c3)N(Cc3ccccc3)C2=O)Sc2ccc(Cl)cc21` reads 1.06 µM; that for `CC(C)(C)NCCN(Cc1ccc(-c2ccc(C(F)(F)F)cc2)cc1)C(=O)Cn1c(CCc2cccc(F)c2F)nc(=O)c2ccccc21`, 0.76 µM; that for `CCn1ccc2c(N3CCCCS3(=O)=O)cc(C(=O)N[C@@H](Cc3ccccc3)[C@H](O)CNC(C)(C)CCCC(C)C)cc21`, 0.42 µM.
`Fc1cc(Cl)ccc1Nc1ccnc2cc(-c3ccc(CN4CCSCC4)o3)ccc12` had a half-maximal inhibitory concentration (IC50) of 0.78 µM.
`CC(C)(C)Oc1ccc(CC2NC3(C(=O)N(Cc4ccc(C(C)(C)C)cc4)c4ccccc43)C3C(=O)N(c4ccc(Br)cc4)C(=O)C23)cc1` (centres undefined) gave a 50% inhibitory concentration (IC50) of 0.72 µM.
The result for `Cc1cc(CN2CC[C@H](NC(=O)c3ccc(Cl)c(Cl)c3)C2)ccc1OCCN1CCCC1` reads 1.16 µM; that for `Cc1ccc2cc(C3NC(=O)c4ccccc4N3)c(Cl)nc2c1` (centres undefined), 0.94 µM.
The result for `CN1C(=O)[C@H](NC(=O)[C@@H](Cc2ccccc2)NC(=S)Nc2ccccc2)N=C(c2ccccc2)c2ccccc21` reads 0.86 µM.
The figure for `c1ccc(COc2ccc(COc3ccc(Cn4ccnc4)cc3)cc2)cc1` is 0.95 µM; for `Cc1nc(-c2nc(NCCc3ccncc3)ncc2-c2ccsc2)sc1C` it is 0.3 µM.
In turn, `CS(=O)(=O)c1ccccc1CNC(=O)c1cccc(-c2ccc(-c3nc4ccc(C(F)(F)F)cc4[nH]3)cc2)c1` yielded a half-inhibitory concentration (IC50) of 0.81 µM.
`COc1ccc2ncc(C)c(CCN3CCC(NCc4ccc5c(n4)NC(=O)CS5)CC3)c2c1` had a half-inhibitory concentration (IC50) of 0.55 µM.
The figure for `O=C(Nc1cccc(CN2CCCN(Cc3cccc(Cl)c3)CC2)c1)c1ccc(-c2ccccc2)cc1` is 1.23 µM.
The result for `Cc1ccc(CNC(=O)c2cc3c(=O)n4cccc(C)c4nc3n(CCN3CCOCC3)c2=N)cc1` reads 0.85 µM; that for `O=C(/C=C/c1c(Cl)cccc1Cl)NC1CCC(CN2CCC(c3c[nH]c4ccncc34)CC2)CC1` (centres undefined), 0.16 µM.
`NC(=NCc1ccc(O)cc1)Nc1nc(-c2ccc(OCCCn3ccnc3)cc2)cs1`: the 50% inhibitory concentration (IC50) came out at 0.75 µM.
The result for `COc1ccc2c(c1C1CCN(CCCCNC(=O)c3ccc(-c4ccc(Cl)cn4)cc3)CC1)CCCC2` reads 1.02 µM; that for `CCNc1cc(C)nc(Nc2ccc(NC(=O)c3ccccc3Cl)cc2)n1`, 1.01 µM.
The result for `CC[C@H](C)CNC(=O)c1ccnc(-c2ccc(CNCCCc3ccccc3)cc2)c1` reads 1.23 µM; that for `O=C(/C=C/c1ccc(C(F)(F)F)cc1)NCCCCCN1CCCN(C(=O)Nc2ccc(Cl)cc2)CC1`, 0.87 µM.
The result for `O=C(/C=C/c1ccc(Cl)cc1)NCCCCCN1CCCC(C(=O)Nc2ccc(F)c(Cl)c2)C1` (centres undefined) reads 1.12 µM; that for `Clc1ccc(Nc2nc3nonc3nc2Nc2ccc(Cl)c(Cl)c2)cc1`, 0.65 µM.
